What all share (format): cell-based
In experiment [1] the test system is TT cells (human medullary thyroid carcinoma cells). Briefly: alamarBlue proliferation assay with TT cells. The conditions noted are these: for activity at 40 µM: Homo sapiens, 120 h, relative to DMSO basis level 1.0, read-out: weighted arithmetic mean (AVEw) of normalized fluorescence intensity, activity range. The protocol: (§1) The antiproliferative activities of compounds falling under formula I, formula II, formula III, formula IV and formula V were investigated on cells or cell lines originating from a disorder of the myeloid cell compartment, the neuroendocrine system, the cervix, and the mucosal epithelium, as well as from the skin epithelium. To this end, HL-60 cells, TT cells, HeLa cells, CAL-27 cells and human primary epidermal keratinocytes (HPEK) were seeded into 96-well plates suitable for fluorescence assays (CORNING #3598) at following initial cell numbers: 1000 cells per well for HL-60; 9000 cells per well for TT; 2000 cells per well for HeLa, 2000 cells per well for CAL-27, 2000 cells per well for HPEK. The cells were treated with compounds at indicated final concentrations (diluted from the 1000× stock-solutions in DMSO to a final DMSO concentration of 0.1% v/v) or with the empty carrier DMSO at 0.1% v/v as control for 5 days. At day 5 after starting the treatments the cells were subjected to the alamarBlue® Proliferation Assay (Bio-Rad Serotec GmbH, BUF012B) according to the protocol of the manufacturer. The readout was taken with a multi-well plate-reader in the fluorescence mode with applying a filter for excitation at 560 nm (band width 10 nm) and for emission at 590 nm (band width 10 nm). Resveratrol (RES) treatment was included as control for growth inhibition.
(§2) The assays were performed in duplicate or more replicates of independent single experiments each containing a six-fold replicate for every condition. For every individual plate, the measured fluorescence intensity values of the conditions with compound treatment were normalized against the corresponding equally weighted arithmetic mean of the fluorescence intensity values of the six DMSO treated control wells in order to obtain the relative values to a baseline level of 1.0. The statistical calculations were performed in analogy to the luciferase assay as described above. To this end, two independent outlier analyses were performed according to the methods by Peirce and Chauvenet (Ross, Journal of Engineering Technology 2003, 1-12). Outliers confirmed by at least one of the methods were excluded from the calculations but not more than one value out of six per compound within a single experiment. The weighted arithmetic mean AVEw for each compound was calculated from the normalized values over all independent replicates of the single experiments comprising the six replicates each. The corresponding standard deviation for the weighted arithmetic mean was calculated according to the method described by Bronstein et al. (Bronstein, Semendjajew, Musiol, Mühlig, Taschenbuch der Mathematik, 5th edition 2001 (German), publisher: Verlag Harri Deutsch, Frankfurt am Main and Thun) and was combined with the Gauß′ error propagation associated with the performed calculation for the normalization. The resulting standard deviation is herein referred to as “combined standard deviation”.
TT cells were cultivated according to the protocol of the provider in F-12K medium (Fisherscientific, #11580556, or ATCC, #ATCC-30-2004) containing 10% fetal bovine serum (Fisherscientific, #15517589).
(§3) A compound is considered as a growth inhibitor of TT cells, if—at a reference concentration of 40 μM—the weighted arithmetic mean of the normalized fluorescence intensity values after addition of the corresponding combined standard deviation amounts to 0.9 or lower, in particular to 0.8 or lower, 0.7 or lower, 0.6 or lower, 0.4 or lower, and 0.2 or lower, relative to the overall basis level of 1.0. The overall basis level was calculated as the weighted arithmetic mean of all normalized values from the DMSO control measurements in analogy to the calculations performed for the test-compounds. The corresponding combined standard deviation for the DMSO values amounts to less than 1·10^−2.

The subject of experiment [2] is HL-60 cells (human acute myeloid leukemia cells). Briefly: alamarBlue proliferation assay with HL-60 cells. The note with it: 120 h, 5 days, relative to DMSO baseline level of 1.0, read-out: AVEw, weighted arithmetic mean of normalized fluorescence intensity values (Activity Range), HL-60 proliferation. The gist of the method: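 HL-60 cells (1000/well, RPMI 1640 + 10% FBS) exposed to compound in 0.1% DMSO for 5 days, then alamarBlue fluorescence read (ex 560/em 590 nm). Signals normalized to six DMSO wells per plate (baseline 1.0); outliers removed by Peirce/Chauvenet; weighted mean with combined SD; inhibitor criterion judged at 20 μM reference concentration.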

The subject of experiment [3] is HPEKp cells (human epidermal keratinocyte progenitors, pooled). Briefly: alamarBlue proliferation assay with HPEKp cells. The note with it: 120 h, relative to DMSO basis level 1.0, read-out: weighted arithmetic mean (AVEw) of normalized fluorescence intensity, activity range. How it is done:
as §1, §2
HPEKp cells were cultivated according to the protocol of the provider in CnT-Prime epithelial culture medium (CELLnTEC, #CnT-PR, a fully defined, low calcium formulation, completely free of animal or human-derived components) without addition of further components.
as §3, with “HPEKp” for “TT”, “10” for “40”

Turning to `NC(=O)c1ccc(Oc2ccc(C3CC4CCC3C4)cc2)cc1` (racemic) [Compound 159, (±)-4-(4-(Bicyclo[2.2.1]heptan-2-yl)phenoxy)benzamide], the activity at 40 µM in experiment [1] fell in the range of 80 to 90%. Further, the activity at 20 µM in experiment [2] fell in the range of 40 to 60%. Further, the activity at 10 µM in experiment [3] was in the range of 0 to 20%.

With `CCCc1ccc(Oc2ccc(C(=O)NO)cc2)cc1` [Compound 166, N-hydroxy-4-(4-propylphenoxy)benzamide], in experiment [1], the activity at 40 µM was 20 to 40%. The activity at 20 µM in experiment [2] fell in the range of 0 to 20%.

Turning to `CCC(C)(C)c1ccc(Oc2ccc(C(=O)NO)cc2)cc1` [Compound 171, N-hydroxy-4-(4-(tert-pentyl)phenoxy)benzamide], in experiment [1], the activity at 40 µM lay in the range of 20 to 40%. Also, the activity at 20 µM in experiment [2] is 0 to 20%.

Take `O=C(NO)c1ccc(Oc2ccc(C3CCCCC3)cc2)cc1` [Compound 182, 4-(4-cyclohexylphenoxy)-N-hydroxybenzamide]: the activity at 40 µM in experiment [1] was 20 to 40%. Besides, in experiment [2], the activity at 20 µM was in the range of 0 to 20%. Moreover, the activity at 10 µM in experiment [3] was 0 to 20%.

For the molecule `O=C(NO)c1ccc(Oc2ccc(C34CC5CC(CC(C5)C3)C4)cc2)cc1` [Compound 186, 4-(4-(Adamantan-1-yl)phenoxy)-N-hydroxybenzamide], the activity at 40 µM in experiment [1] was in the range of 20 to 40%. Further, the activity at 20 µM in experiment [2] lay within 0 to 20%.

Turning to `CC(C)c1ccc(Oc2ccc(C(=O)NO)cn2)cc1` [Compound 272, N-hydroxy-6-(4-isopropylphenoxy)nicotinamide], in experiment [1], the activity at 40 µM was in the range of 0 to 20%. In experiment [2], the activity at 20 µM fell in the range of 0 to 20%.

With `CCC(C)(C)c1ccc(Oc2ccc(C(=O)NO)cn2)cc1` [Compound 273, N-hydroxy-6-(4-(tert-pentyl)phenoxy)nicotinamide], the activity at 20 µM in experiment [2] lay within 0 to 20%. In addition, the activity at 10 µM in experiment [3] was 0 to 20%.

Regarding `O=C(NO)c1ccc(Oc2ccc(C3CCCCC3)cc2)nc1` [Compound 284, 6-(4-Cyclohexylphenoxy)-N-hydroxynicotinamide], in experiment [1], the activity at 40 µM was 0 to 20%. Also, the activity at 20 µM in experiment [2] fell in the range of 0 to 20%.

On to `O=C(NO)c1ccc(Oc2ccc(C3CC4CCC3CC4)cc2)nc1` (stereo not drawn) [Compound 287, 6-(4-((1s,4s)-bicyclo[2.2.2]octan-2-yl)phenoxy)-N-hydroxynicotinamide], for which the activity at 40 µM in experiment [1] fell in the range of 20 to 40%. Moreover, the activity at 20 µM in experiment [2] is 0 to 20%. The activity at 10 µM in experiment [3] was 0 to 20%.

Turning to `O=C(NO)c1ccc(Oc2ccc(C34CC5CC(CC(C5)C3)C4)cc2)nc1` [Compound 288, 6-(4-((3r,5r,7r)-adamantan-1-yl)phenoxy)-N-hydroxynicotinamide], the activity at 40 µM in experiment [1] is 0 to 20%. In addition, the activity at 20 µM in experiment [2] is 0 to 20%.

For the molecule `CNC(=O)c1ccc(Oc2ccc(C(F)(F)F)cc2)nc1` [Compound 300, N-methyl-6-(4-(trifluoromethyl)phenoxy)nicotinamide], in experiment [2], the activity at 20 µM is 80 to 90%.

With `CN(C)C(=O)c1ccc(Oc2ccc(C3CCCCC3)cc2)nc1` [Compound 334, 6-(4-cyclohexylphenoxy)-N,N-dimethylnicotinamide], in experiment [1], the activity at 40 µM was 80 to 90%. Also, in experiment [2], the activity at 20 µM fell in the range of 60 to 70%. In experiment [3], the activity at 10 µM lay in the range of 60 to 70%.

Take `O=C(NO)c1ccc(Oc2ccc(C34CC5CC(CC(C5)C3)C4)cc2)c(F)c1` [Compound 544, 4-(4-(Adamantan-1-yl)phenoxy)-3-fluoro-N-hydroxybenzamide]: the activity at 40 µM in experiment [1] was 20 to 40%. The activity at 20 µM in experiment [2] lay in the range of 0 to 20%.

Consider `O=C(NO)c1cnc(Oc2ccc(C3CCCCC3)cc2)c(F)c1` [Compound 644, 6-(4-Cyclohexylphenoxy)-5-fluoro-N-hydroxynicotinamide], for which the activity at 40 µM in experiment [1] fell in the range of 20 to 40%. Further, the activity at 20 µM in experiment [2] is 0 to 20%. Further, in experiment [3], the activity at 10 µM was 0 to 20%.

For the molecule `Oc1ccc(C=Cc2cc(O)cc(O)c2)cc1` [RES, resveratrol, reference compound], in experiment [1], the activity at 40 µM amounted to 80%. Besides, the “weighted arithmetic mean (AVEw) of normalized fluorescence intensity” value in experiment [1] (control RES at 20 μM, relative to DMSO basis level 1.0) came out at 0.9 ± 0.0. Besides, the activity at 20 µM in experiment [2] turned out to be 40%. Also, the activity at 10 µM in experiment [3] was determined as 40%.

(Values after patent publication US12600696B2 (XENIOPRO GMBH, priority 2017, dated 2026).)
